Data taken from the supplement of paper PMC10307832.

Experiments:
Assay in all cases: relative viability (nuclei count vs DMSO), 5 days (fraction); higher = more cells survive
Wnt-C59 + OSI-027 = compound: CC1=NC=CC(=C1)C2=CC=C(C=C2)CC(=O)NC3=CC=C(C=C3)C4=CN=CC=C4 [Wnt-C59] + COc1cccc2cc(-c3nc([C@H]4CC[C@H](C(=O)O)CC4)n4ncnc(N)c34)[nH]c12 [OSI-027] (partner 0.5 µM)
Method in brief: (§1)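 Medians of duplicate plates are given as relative viability. That measure is the nuclei count in treated wells divided by the count in vehicle wells. Counts were taken on 4× images of lung cancer cell lines in 1536-well plates, 5 days after pin-tool dosing the day after seeding with one drug alone or a fixed anchor-drug dose plus five library-drug doses (not always all listed) in √10 steps.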

Wnt-C59 + Pemetrexed = compound: CC1=NC=CC(=C1)C2=CC=C(C=C2)CC(=O)NC3=CC=C(C=C3)C4=CN=CC=C4 [Wnt-C59] + Nc1nc2[nH]cc(CCc3ccc(C(=O)N[C@@H](CCC(=O)O)C(=O)O)cc3)c2c(=O)[nH]1 [Pemetrexed] (partner 0.2 µM)
Method in brief: as §1

Lapatinib + Luminespib = compound: CS(=O)(=O)CCNCc1ccc(-c2ccc3ncnc(Nc4ccc(OCc5cccc(F)c5)c(Cl)c4)c3c2)o1 [Lapatinib] + CCNC(=O)c1noc(-c2cc(C(C)C)c(O)cc2O)c1-c1ccc(CN2CCOCC2)cc1 [Luminespib] (partner 0.01 µM)
Method in brief: as §1

Lapatinib + Alpelisib = compound: CS(=O)(=O)CCNCc1ccc(-c2ccc3ncnc(Nc4ccc(OCc5cccc(F)c5)c(Cl)c4)c3c2)o1 [Lapatinib] + Cc1nc(NC(=O)N2CCC[C@H]2C(N)=O)sc1-c1ccnc(C(C)(C)C(F)(F)F)c1 [Alpelisib] (partner 2 µM)
Method in brief: as §1

UMC-11
relative viability (Wnt-C59 + OSI-027; first compound 0.001 µM): 0.464
relative viability (Wnt-C59 + OSI-027; first compound 0.01 µM): 0.495
relative viability (Wnt-C59 + OSI-027; first compound 0.03162 µM): 0.477
relative viability (Wnt-C59 + OSI-027; first compound 0.1 µM): 0.462
relative viability (Wnt-C59 + Pemetrexed; first compound 0.001 µM): 0.756
relative viability (Wnt-C59 + Pemetrexed; first compound 0.01 µM): 0.821
relative viability (Wnt-C59 + Pemetrexed; first compound 0.03162 µM): 0.874
relative viability (Wnt-C59 + Pemetrexed; first compound 0.1 µM): 0.76
relative viability (Lapatinib + Luminespib; first compound 0.02 µM): 0.887
relative viability (Lapatinib + Luminespib; first compound 0.06325 µM): 0.957
relative viability (Lapatinib + Luminespib; first compound 0.2 µM): 0.976
relative viability (Lapatinib + Luminespib; first compound 0.6325 µM): 0.901
relative viability (Lapatinib + Luminespib; first compound 2 µM): 1.02
relative viability (Lapatinib + Alpelisib; first compound 0.02 µM): 0.861
relative viability (Lapatinib + Alpelisib; first compound 0.06325 µM): 0.933
relative viability (Lapatinib + Alpelisib; first compound 0.2 µM): 0.986
relative viability (Lapatinib + Alpelisib; first compound 0.6325 µM): 0.887
relative viability (Lapatinib + Alpelisib; first compound 2 µM): 1.09
